# Test results reported in US9217157B2, “Recombinant influenza viruses and uses thereof” (Icahn School of Medicine at Mount Sinai, priority 2009, dated 2015).
# Experiments:
# [1] = system: NS1-GFP virus; assay type: in vivo, influenza A virus
# [2] = system: NS1-GFP virus; set-up: species or system influenza A virus; conditions: in vivo
Compound,"GFP fluorescence intensity of lungs lower than in untreated mice ([1]; day 2 post-infection, 10^6 pfu, 50 mg/Kg once daily from day of infection)","spread of GFP signal in lungs, in words ([1]; day 4 post infection, treatment from day of infection)","GFP fluorescence signal in lungs vs no treatment, in words ([1]; day 4 post infection, treatment started two days after infection (day+2))","effect on NS1-GFP infection in different cell types, in words [2]","number of infiltrating cells (inflammatory monocytes and neutrophils), in words [2]",prevention of infection in B and NK cells [2],reduction in infection of CD11b+ CD11c+ cells [2],reduction in infection of epithelial (CD45-) cells [2]
CCOC(=O)C1=C[C@@H](OC(CC)CC)[C@H](NC(C)=O)[C@@H](N)C1 [oseltamivir],3 to 5 fold,significantly restricted the spread of viral infection,no significant difference,dramatically reduced infection rate in all of the examined cell types,dramatically lower than in amantadine treated mice,–,–,–
NC12CC3CC(CC(C3)C1)C2 [amantadine],–,–,–,"most effective in blocking infection of NK and B cells, but was less potent for other cell types",–,3-4 fold,50%,50%
